Reference: publication PMC8268581, “Identification of 3,4-Dihydro-2H,6H-pyrimido[1,2-c][1,3]benzothiazin-6-imine Derivatives as Novel Selective Inhibitors of Plasmodium falciparum Dihydroorotate Dehydrogenase” (International Journal of Molecular Sciences, 2021)

Assays:
[1] = molecular target: T1, PfDHODH (Plasmodium falciparum, UniProt Q08210); assay: PfDHODH inhibition assay (DCIP end-point, 384-well); assay type: biochemical; settings: recombinant tag-free PfDHODH, 20 min, serial dilutions 0.0007-22.7 µM; read-out: IC50 DHODH Pf
T1 construct: encoding amino acid residues 158 to 569 fused to a His6-SUMO tag in its N-terminus; His6-SUMO (N, cleaved yes); made in house; host or cells: E. coli BL21 Star (DE3), pETSUMO/PfDHODH
T1 sequence (Q08210 158-569): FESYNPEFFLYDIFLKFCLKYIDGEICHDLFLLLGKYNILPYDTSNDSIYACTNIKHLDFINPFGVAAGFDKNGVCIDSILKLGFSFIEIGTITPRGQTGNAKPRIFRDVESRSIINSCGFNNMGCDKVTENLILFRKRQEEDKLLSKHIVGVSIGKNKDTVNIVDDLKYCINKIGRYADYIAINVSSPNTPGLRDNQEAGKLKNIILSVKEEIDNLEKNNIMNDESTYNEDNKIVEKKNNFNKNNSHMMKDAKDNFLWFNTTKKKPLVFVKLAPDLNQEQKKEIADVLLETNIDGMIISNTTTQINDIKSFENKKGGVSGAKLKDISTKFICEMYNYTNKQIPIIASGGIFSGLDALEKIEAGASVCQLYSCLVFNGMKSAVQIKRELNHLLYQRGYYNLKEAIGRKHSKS
Procedure: The screening of 40,400 compounds was conducted in 384-well plates by adapting the end-point assay reported before. First, 1 µL of 200 µM compound was transferred into 384-well plates using a Benchtop Multi-Pipetter EDR-384SR (Biotech Co., Ltd., Tokyo, Japan). […] Next, 38 µL of assay mix (100 mM HEPES-NaOH pH 7.5, 5% (v/v) glycerol, 150 mM NaCl, 0.05% (v/v) Triton X-100, 15 µM decylubiquinone (dUQ, Sigma), 120 µM 2,6-dichlorophenolindophenol (DCIP, Sigma), and 20 nM PfDHODH) were dispensed into all wells and mixed at 600 rpm for 1 min by a MixMate®® (Eppendorf). The reaction was started by the addition of 5 µL of 1.8 mM L-DHO (Sigma) as the substrate and mixed as described above for 20 s. The absorbance at 600 nm was recorded using a SpectraMax®® Paradigm®® Multi-Mode Microplate Reader (Molecular Devices) before (t0) and after 20 min (t20) incubation at room temperature. The readings at t0 were subtracted from t20, and PfDHODH inhibition was calculated as the inhibition relative to the negative and positive controls in a single-point assay. Hits were defined as compounds inhibiting more than 50% of PfDHODH activity at 4.5 µM. The quality of the screening system was evaluated by calculating statistical parameters: Z′-factor, S/N, S/B, SW, and CV, as previously reported. The IC50 values of the hit compounds were determined using the same assay system containing serial dilutions of each compound in triplicates (22.7, 6.8, 2.27, 0.68, 0.227, 0.068, 0.023, 0.007, 0.002, 0.0007 µM) using GraphPad Prism 8.0 software (GraphPad Software Inc., San Diego, CA, USA).

[2] = tested on: P. falciparum 3D7 strain expressing the cytosolic yeast DHODH (3D7-yDHODH); assay: Confirmation assay against transgenic parasite 3D7-yDHODH; assay type: cell-based, Plasmodium falciparum; settings: for activity at 10 µM: 72 h, relative parasite growth at 10 µM compound, read-out: Growth at 10 µM (%) Pf3D7-yDHODH
Procedure: Synchronized ring-stage parasites at 0.3% parasitemia and 2% hematocrit were cultured in a 384-well plate at 25 µL with test compounds at a final concentration in the range of 0.0003 to 10 µM with a fixed DMSO concentration of 0.4% (v/v). Parasite growth was monitored by the diaphorase-coupled P. falciparum lactate dehydrogenase (PfLDH) assay, as previously described. After 72 h, 70 µL of the assay solution (150 mM lithium L-lactate (Wako), 0.05 mg/mL 3-acetylpyridine adenine dinucleotide (Oriental Yeast Co., Ltd., Tokyo, Japan), 0.2 mg/mL nitro blue tetrazolium (Wako), 1 unit/mL diaphorase, and 100 mM Tris-HCl pH 8.0) were mixed with the parasite culture and incubated at room temperature for 40 min, and the generated nitro blue formazan was measured at 650 nm using a SpectraMax®® Paradigm®® Multi-Mode Microplate Reader. […] The EC50 was calculated using GraphPad Prism 8.0 software from the mean of quadruplets values.
The P. falciparum 3D7 strain expressing the cytosolic yeast DHODH (3D7-yDHODH) was prepared as follows. pHHyDHODH-GFP plasmid (Kerafast, Boston, MA, USA) was transfected to the P. falciparum 3D7 strain following the established transfection method. Briefly, 50 µg of plasmid dissolved in cytomix solution (120 mM KCl, 0.15 mM CaCl2, 10 mM K2HPO4/KH2PO4 pH 7.6, 25 mM HEPES-KOH pH 7.6, 2 mM ethylene glycol-bis(β-aminoethyl ether)-N,N,N′,N′-tetraacetic acid (EGTA, Dojindo), and 5 mM magnesium chloride (Wako)) was transfected into the red blood cells by the Gene Pulser Xcell (Bio-Rad). Percoll–sorbitol synchronized parasites were mixed with red blood cells containing plasmid and maintained under 5 nM WR99210 for 2 weeks. The growth of resistant parasites against DSM265 and atovaquone, as PfDHODH and complex III inhibitors respectively, was confirmed by PfLDH/diaphorase assay. A total of 10 µM PfDHODH inhibitors were tested against wild-type 3D7 and 3D7-yDHODH following the method described above in triplicate. The significance of difference between the inhibition of the two parasite strains was evaluated by Student’s t-test (Figure S4).

[3] = molecular target: T2, HsDHODH (Homo sapiens, UniProt Q02127); assay: HsDHODH counter-assay; assay type: biochemical; settings: purified recombinant HsDHODH, tested at 4.5 µM; read-out: IC50 DHODH Hs
T2 construct: made in house
T2 sequence (Q02127 whole entry): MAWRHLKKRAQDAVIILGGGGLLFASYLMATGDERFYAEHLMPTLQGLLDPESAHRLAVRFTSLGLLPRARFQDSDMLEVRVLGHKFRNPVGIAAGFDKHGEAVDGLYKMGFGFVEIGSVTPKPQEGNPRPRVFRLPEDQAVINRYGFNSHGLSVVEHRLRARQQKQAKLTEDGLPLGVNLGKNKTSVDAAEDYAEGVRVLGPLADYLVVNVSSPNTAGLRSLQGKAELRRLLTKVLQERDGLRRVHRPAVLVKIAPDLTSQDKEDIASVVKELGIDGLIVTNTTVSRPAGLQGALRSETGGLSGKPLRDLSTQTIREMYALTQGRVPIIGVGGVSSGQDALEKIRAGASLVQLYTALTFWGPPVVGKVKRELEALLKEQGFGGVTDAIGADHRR
Procedure: Selected hit compounds from PfDHODH screening were tested for potential inhibition against HsDHODH at 4.5 µM. The HsDHODH used in this study was purified as previously reported. The HsDHODH assay was performed similarly to that for PfDHODH, but in an assay mix consisting of 50 mM Tris-HCl pH 8.0, 0.1% (v/v) Triton X-100, 2 mM potassium cyanide (KCN, Wako), 60 µM dUQ, and 120 µM DCIP, with the reaction started by the addition of 200 µM L-DHO (final concentration) in triplicate. For this assay, DMSO was used as a negative control and 10 µM of lapachol was used as a positive control (100% inhibition). The relative inhibition was calculated as described above.

[4] = molecular target: mammalian mitochondrial complexes I–III (Bos taurus, UniProt P00157+P03887+P17694+P42026); assay: NADH-cytochrome c reductase (complexes I–III) activity assay; assay type: biochemical; settings: bovine heart mitochondria, range tested 0.0007 to 22.7 µM; read-out: IC50 Mammalian Mitochondrial CI–III
Procedure: Bovine heart mitochondria were prepared as previously described. The NADH-cytochrome c reductase (complexes I–III) and succinate-cytochrome c reductase (complexes II–III) activities were assayed in 384-well plates following an established protocol with small modifications. Complex I–III activity was assayed in a reaction mix containing 50 mM phosphate buffer pH 7.4, 2 mM KCN, 200 µM cytochrome c (cytochrome c from horse heart, Nacalai tesque), and 15 µg/mL mitochondria. Plates containing 1 µL serial dilutions of PfDHODH inhibitors were prepared and mixed with 38 µL of the reaction mix, as described above. The reaction was started by the addition of 5 µL of 2.6 mM NADH, and the assay was performed as described for PfDHODH, but at 550 nm and with 15 min of incubation. Complex II–III activity was assayed similarly to complex I–III activity but with 100 µM cytochrome c and 25 µg/mL mitochondria, and the reaction was started by 10 mM succinate. For both assays, DMSO and 5 µM ascochlorin were used as negative and positive controls, respectively. Assays were performed in triplicate.

Row | Compound | IC50 [1] [nM] | activity at 10 µM [2] [%] | IC50 [3] [nM] | IC50 [4] [nM] | susceptibility of Pf3D7-yDHODH parasite (in words) ([2]; relative parasite growth at 10 µM, compared with wild-type 3D7)
1 | COc1ccccc1-c1ccc2c(c1)SN1CCCN=C21 [Compound 42] | 1180 ± 50 | 0.04 ± 0.15 | > 4500 | > 22700 | –
2 | O=[N+]([O-])c1ccccc1-c1ccc2c(c1)SN1CCCN=C21 [Compound 43] | 1150 ± 60 | 31.1 ± 2.38 | > 4500 | > 22700 | reduced susceptibility
